Laboratory results as given in article PMC12304293, “Combatting virulent gut bacteria by inhibiting the biosynthesis of a two-component lanthipeptide toxin” (Nature Communications, 2025).
Several values for one entry are separate records, joined by “and”; a condition that tells them apart may be missing. Identical values can stand only once. Non-standard residues stand in square brackets, D forms with d. Residues, ends and D or L forms follow the SMILES beside them. *: point of attachment. boroGlu = O=C(O)CC[C@H](N*)B(O)O; Gly(cPr) = N[C@H](C(=O)O)C1CC1

Legend:
[1] = assay type: in vitro ADME; conditions: 100 µM, 25% human serum, 3 h, 37 °C
Description: Similiarly, 9 was diluted to 100 µM in BHI that was inoculated with E. faecalis ATCC 29212 before incubating at 37 °C for 20 h. The overnight culture was flash frozen and lyophilized. The lyophilized samples were extracted with a volume of 90% methanol/10% water that was equal to the volume of the sample prior to lyophilization. The extract was assumed to have a concentration of 100 µM. […]
Human Serum + 9 Human Serum
Log(Concentration (µM)) Log(Concentration(µM))
Supplementary Figure 19. The stability of inhibitor 9 in the pres ence of human serum or C+ E. faecalis. A ) C y l A i nhibition activity of an extract of human s erum treated with 9 (100 μM) for 3 h at 37 ̊C. The resulting solution was used to determine the remaining activity of the inhibitor in a […]
CylA activity assay. […] This experiment was perform ed on three different samples of inhibitor (n = 3). B) CylA inhibition activity of an extract of E. faecalis that was treated with 9 (100 μM) for 20 h at 37 ̊C (+9 +E. faecalis). The resulting solution was used to determine the remaining activity of the inhibitor in a CylA activity assay. An IC50 equal to 36 ± 3 nM was determin ed. Thes e values are higher than the IC50 for a fresh batch of […]
(also on this page, place not known: determined. inhibition CylA These IC 50 presence serum This performed A) Non-linear fitting v i/vo IC 50. […]

[2] = tested on: CylLS” in C+ E. faecalis ATCC 29212; experiment: Detection of CylLS” from extracts of E. faecalis (LCMS); assay type: cell-based, Enterococcus faecalis; conditions: for Concentration CylLS (Figure 8C), replicates 1-4: ATCC 29212 overnight culture extract; for Concentration CylLS (Figure 8C), avg: n = 4
Description: To determine if inhibitor 9 blocks the maturation of cytolysin in C+ E. faecalis, an LCMS method was developed to estimate the concentration of CylLS” in cell extracts. This method employed biosynthetically prepared ^15N,^13C-labeled CylLS” as an internal standard. Cultures of E. faecalis were treated with inhibitor 9 or vehicle then lyophilized and extracted with methanol.
An overnight culture of E. faecalis ATCC 29212 was diluted to an OD600 equal to 2.0 in BHI then further diluted 1000-fold in BHI. Inhibitor 9 or vehicle was added immediately after dilution and the inoculated samples were incubated with shaking at 37 °C for 20 h. Following incubation, a 400 µL aliquot of each sample was flash frozen and lyophilized. Each lyophilized sample was extracted with 400 µL of 90% methonal/10% water containing ^15N,^13C-labeled CylLS” (5.8 nM). Alternating rounds of water bath sonication and vortexing were used to homogenize the samples. Once homogenized, the samples were allowed to stand at room temperature for 1 h then were centrifuged at 16,000 g for 10 min, incubated at −20 °C for 1 h, and centrifuged at 16,000 g for 10 min. The supernatant was analyzed by LCMS using injection volumes of 5 µL. EIC corresponding to the exact masses of [M + 2H]^2+ and [M+Na+H]^2+ were integrated and the peak areas were added together giving the total CylLS” and internal standard responses. The concentration of CylLS” was estimated from the response ratio multiplied by the concentration of the internal standard.

[3] = tested on: C+ E. faecalis (FA2-2 (pAM714), ATCC 29212); experiment: Solution-phase hemolysis assay with C+ E. faecalis and rabbit erythrocytes; assay type: cell-based, Enterococcus faecalis
Source text: To test this hypothesis, a solution-phase hemolysis assay was developed, and this assay was used to monitor the effect of 9 on the hemolytic activity of several strains of E. faecalis (Fig. 8A). The cytolysin BGC is part of conjugative plasmid pAD1[64]. E. faecalis FA2-2 (-pAD1) lacks pAD1 and E. faecalis FA2-2 (pAM9055) is defective in cylA[27],[64]. Consistent with previous findings, both strains were not hemolytic (Fig. 8A).
A Treatment of an inoculum (OD600 = 0.35) of washed E. faecalis cells with 100 μM inhibitor 9 ( + 9), in the presence of washed rabbit erythrocytes. The hemolytic activity decreased relative to untreated controls (− 9). In total, four biological replicates (n = 4) for each condition were performed. Error bars represent the standard deviation and are centered at the mean. B Assessment of the ability of inhibitor 9 to block the hemolytic activity of live E. faecalis over a range of inhibitor concentrations under conditions described for (A). […] Errors in the EC50 are the errors calculated during the non-linear concatenate fit. C LCMS analysis of the concentration of CylLS” extracted from overnight cultures of C+ E. faecalis ATCC 29212 treated with 9 or vehicle. CylLS” extract concentrations were determined by comparison to an internal standard of ^15N,^13C-labeled CylLS”. Four biological replicates were performed (n = 4). Errors bars are centered at the mean and represent the standard of deviation. […] Four biological replicates were performed (n = 4). Error bars are centered at the mean and represent the standard of deviation. Statistical significance was calculated using a two sample and two sided t test for (A) and (C) and a one sample one sided t test for (D). **P < 0.01, ***P < 0.001. Source data are provided as a Source Data file.
Rabbit erythrocytes (Hemostat) were washed with cold, sterile PBS and diluted in BHI to a concentration of 1% v/v. A 3 mL overnight culture of E. faecalis was centrifuged (4000 × g, 10 min) and the pellet was resuspended in 7 mL of BHI and the suspension was centrifuged (4000 × g, 10 min). The pellet was resuspended in BHI to achieve an OD600 of 1.4 and 50 µL of this suspension was added to a well containing 50 µL of inhibitor (400 µM). The inhibitor and the E. faecalis were incubated at room temperature for 10 min before adding 100 µL of 1% v/v rabbit erythrocytes in BHI. The inhibitor-free control well contained the same concentration of bacteria and rabbit erythrocytes. The sterile negative control and sterile positive control contained 100 µL of BHI and 100 µL of 1% v/v rabbit erythrocytes. […] The plate was then placed on ice and centrifuged at 1000 × g for 10 min to pellet all the remaining cellular material. The supernatant was diluted 10-fold in PBS and the absorbance at 415 nm was measured. For each condition, four wells were prepared and analyzed.

## CC(=O)NCC(=O)N[C@@H](CC(=O)O)C(=O)N[C@H](C(=O)N[C@@H](CCC(N)=O)C(=O)N[C@@H](C)C(=O)N[C@@H](CCC(=O)O)B(O)O)C1CC1 [Compound 9] (Ac-GD[Gly(cPr)]QA-boroGlu)
[1]
  stability in human serum: relatively good stability
[2]; 100 µM, on average
  quantities of CylLS” less than the untreated control: 5.5 fold
[2]; Conc 1 uM of 9
  Concentration CylLS (Figure 8C), replicates 1-4: 1.79 nM and 1.72 nM and 1.6 nM and 1.8 nM
  Concentration CylLS (Figure 8C), avg: 1.726 nM
[2]; Conc 10 uM of 9
  Concentration CylLS (Figure 8C), replicates 1-4: 2.34 nM and 2.21 nM and 2.19 nM and 2.55 nM
  Concentration CylLS (Figure 8C), avg: 2.322 nM
[2]; Conc 100 uM of 9
  Concentration CylLS (Figure 8C), replicates 1-4: 0.272 nM and 0.227 nM and 0.262 nM and 0.247 nM
  Concentration CylLS (Figure 8C), avg: 0.2518 nM
[3]; ATCC29212 +9, 100 μM
  hemolysis, absorbance at 415 nm (Figure 8A), replicates: 0.1606 and 0.1785 and 0.1723 and 0.2311
[3]; C+ E. faecalis ATCC 29212, 100 μM, rabbit erythrocytes
  hemolysis relative to untreated cells: significantly reduced
[3]; E. faecalis FA2-2 (pAM714), 100 μM, rabbit erythrocytes
  hemolytic activity relative to untreated cells: significantly reduced
[3]; log(concentration of Inhibitor 9 (uM)) 1
  OD 415 nm (Figure 8B), trials 1 and 2: 0.3132 and 0.3077
[3]; log(concentration of Inhibitor 9 (uM)) 1.39794
  OD 415 nm (Figure 8B), trials 1 and 2: 0.3207 and 0.274
[3]; log(concentration of Inhibitor 9 (uM)) 1.69897
  OD 415 nm (Figure 8B), trials 1 and 2: 0.2734 and 0.2373
[3]; log(concentration of Inhibitor 9 (uM)) 1.87506
  OD 415 nm (Figure 8B), trials 1 and 2: 0.2493 and 0.2138
[3]; log(concentration of Inhibitor 9 (uM)) 2
  OD 415 nm (Figure 8B), trials 1 and 2: 0.2161 and 0.1917
[3]; log(concentration of Inhibitor 9 (uM)) 2.09691
  OD 415 nm (Figure 8B), trials 1 and 2: 0.2085 and 0.1864
[3]; log(concentration of Inhibitor 9 (uM)) 2.17609
  OD 415 nm (Figure 8B), trials 1 and 2: 0.1972 and 0.1808
[3]; log(concentration of Inhibitor 9 (uM)) 2.30103
  OD 415 nm (Figure 8B), trials 1 and 2: 0.2237 and 0.2008
[3]; pAM714 +9, 100 μM
  hemolysis, absorbance at 415 nm (Figure 8A), replicates: 0.2309 and 0.2273 and 0.2512 and 0.1929
